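Interpolation was linear, between the two tested concentrations surrounding the appropriate level; five concentrations were tested over 48 hours in 96-well plates. At the GI50, growth is halved. The concentration for full growth arrest is given as TGI.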
What was measured:
Experiment in all cases: NCI anticancer screen, dose series, 48 h
ACHN renal = system: ACHN renal
A498 renal = system: A498 renal
786-0 renal = system: 786-0 renal
HOP-92 NSCLC = system: HOP-92 NSCLC
LOX IMVI melanoma = system: LOX IMVI melanoma
U251 CNS = system: U251 CNS
NCI-H522 lung = system: NCI-H522 lung
PC-3 prostate = system: PC-3 prostate
SN12C renal = system: SN12C renal
OVCAR-5 ovarian = system: OVCAR-5 ovarian
MALME-3M melanoma = system: MALME-3M melanoma
COLO 205 colon = system: COLO 205 colon
SK-MEL-5 melanoma = system: SK-MEL-5 melanoma
M14 melanoma = system: M14 melanoma
SNB-75 CNS = system: SNB-75 CNS
IGROV1 ovarian = system: IGROV1 ovarian
SK-MEL-2 melanoma = system: SK-MEL-2 melanoma
SK-OV-3 ovarian = system: SK-OV-3 ovarian
SK-MEL-28 melanoma = system: SK-MEL-28 melanoma
CCRF-CEM leukemia = system: CCRF-CEM leukemia
K-562 leukemia = system: K-562 leukemia
HOP-62 NSCLC = system: HOP-62 NSCLC
EKVX NSCLC = system: EKVX NSCLC
NCI-H226 lung = system: NCI-H226 lung
DU-145 prostate = system: DU-145 prostate
SW-620 colon = system: SW-620 colon
T-47D breast = system: T-47D breast
MDA-MB-435 = system: MDA-MB-435
HT29 colon = system: HT29 colon
RXF 393 renal = system: RXF 393 renal
HCT-116 colon = system: HCT-116 colon
MOLT-4 leukemia = system: MOLT-4 leukemia
SF-539 CNS = system: SF-539 CNS
TK-10 renal = system: TK-10 renal
CAKI-1 renal = system: CAKI-1 renal
HCT-15 colon = system: HCT-15 colon
BT-549 breast = system: BT-549 breast
MDA-MB-468 breast = system: MDA-MB-468 breast
OVCAR-4 ovarian = system: OVCAR-4 ovarian
SNB-19 CNS = system: SNB-19 CNS
SF-268 CNS = system: SF-268 CNS
NCI-H23 lung = system: NCI-H23 lung
SF-295 CNS = system: SF-295 CNS
A549 NSCLC = system: A549 NSCLC
OVCAR-8 ovarian = system: OVCAR-8 ovarian
MCF7 breast = system: MCF7 breast
NCI/ADR-RES ovarian = system: NCI/ADR-RES ovarian
UACC-62 melanoma = system: UACC-62 melanoma
RPMI-8226 leukemia = system: RPMI-8226 leukemia
HL-60(TB) leukemia = system: HL-60(TB) leukemia
OVCAR-3 ovarian = system: OVCAR-3 ovarian
NCI-H460 lung = system: NCI-H460 lung
UACC-257 melanoma = system: UACC-257 melanoma
HS 578T breast = system: HS 578T breast
KM12 colon = system: KM12 colon
HCC-2998 colon = system: HCC-2998 colon

## CCCCCCCCCCCCCCCCCCCC(=O)NCCc1c[nH]c2ccc(OC(=O)NOCCOCCOCCOCCOCCOCCOCCOCCOCCOCCOCCOCCOCCOCCOCCOCCOCCOCCOCCOCCOCCOCCOC)cc12
ACHN renal
  GI50: 45.7 µM
  TGI: > 100 µM
A498 renal
  GI50: 25.9 µM
  TGI: 89.9 µM
786-0 renal
  GI50: 31 µM
  TGI: 89 µM
HOP-92 NSCLC
  GI50: 6.3 µM
  TGI: 44.7 µM
LOX IMVI melanoma
  GI50: 14.9 µM
  TGI: 28.5 µM
U251 CNS
  GI50: 16.7 µM
  TGI: 32.8 µM
NCI-H522 lung
  GI50: 14.9 µM
  TGI: 28.8 µM
PC-3 prostate
  GI50: 18.3 µM
  TGI: 70.9 µM
SN12C renal
  GI50: 15.1 µM
  TGI: 39.5 µM
OVCAR-5 ovarian
  GI50: 17.3 µM
  TGI: 41.9 µM
MALME-3M melanoma
  GI50: 14.4 µM
  TGI: 29.3 µM
COLO 205 colon
  GI50: 16.6 µM
  TGI: 30.9 µM
SK-MEL-5 melanoma
  GI50: 13.5 µM
  TGI: 26.5 µM
M14 melanoma
  GI50: 17.5 µM
  TGI: 35.2 µM
SNB-75 CNS
  GI50: 26.9 µM
  TGI: 86 µM
IGROV1 ovarian
  GI50: 21.4 µM
  TGI: 57.1 µM
SK-MEL-2 melanoma
  GI50: 12.8 µM
  TGI: 26 µM
SK-OV-3 ovarian
  GI50: 19.1 µM
  TGI: 41.3 µM
SK-MEL-28 melanoma
  GI50: 15.9 µM
  TGI: 33.9 µM
CCRF-CEM leukemia
  GI50: 13.5 µM
  TGI: 33.8 µM
K-562 leukemia
  GI50: 17.7 µM
  TGI: 70.9 µM
HOP-62 NSCLC
  GI50: 17.8 µM
  TGI: 36.3 µM
EKVX NSCLC
  GI50: 20.9 µM
  TGI: 88.4 µM
NCI-H226 lung
  GI50: 17.4 µM
  TGI: 38.5 µM
DU-145 prostate
  GI50: 28 µM
  TGI: > 100 µM
SW-620 colon
  GI50: 17.8 µM
  TGI: 33.1 µM
T-47D breast
  GI50: 9.98 µM
  TGI: 23.2 µM
MDA-MB-435
  GI50: 20.6 µM
  TGI: 48.6 µM
HT29 colon
  GI50: 15.6 µM
  TGI: 30.8 µM
RXF 393 renal
  GI50: 19.7 µM
  TGI: 53.6 µM
HCT-116 colon
  GI50: 17.4 µM
  TGI: 38.2 µM
MOLT-4 leukemia
  GI50: 5.32 µM
  TGI: 24.9 µM
SF-539 CNS
  GI50: 17.9 µM
  TGI: 40 µM
TK-10 renal
  GI50: 19.5 µM
  TGI: 56.1 µM
CAKI-1 renal
  GI50: > 100 µM
  TGI: > 100 µM
HCT-15 colon
  GI50: 54.4 µM
  TGI: > 100 µM
BT-549 breast
  GI50: 14.1 µM
  TGI: 28.5 µM
MDA-MB-468 breast
  GI50: 11.9 µM
  TGI: 26.3 µM
OVCAR-4 ovarian
  GI50: 18.7 µM
  TGI: 87.7 µM
SNB-19 CNS
  GI50: 20.3 µM
  TGI: 51.7 µM
SF-268 CNS
  GI50: 14.8 µM
  TGI: 52.7 µM
NCI-H23 lung
  GI50: 19.9 µM
  TGI: 46.2 µM
SF-295 CNS
  GI50: 17.8 µM
  TGI: 36.7 µM
A549 NSCLC
  GI50: 17.7 µM
  TGI: 47.9 µM
OVCAR-8 ovarian
  GI50: 16.4 µM
  TGI: 46.2 µM
MCF7 breast
  GI50: 11 µM
  TGI: 28.5 µM
NCI/ADR-RES ovarian
  GI50: > 100 µM
  TGI: > 100 µM
UACC-62 melanoma
  GI50: 17 µM
  TGI: 31.4 µM
RPMI-8226 leukemia
  GI50: 11.8 µM
  TGI: 37.6 µM
HL-60(TB) leukemia
  GI50: 14.4 µM
  TGI: 32.7 µM
OVCAR-3 ovarian
  GI50: 13.2 µM
  TGI: 53.3 µM
NCI-H460 lung
  GI50: 23.4 µM
  TGI: 79.4 µM
UACC-257 melanoma
  GI50: 14.7 µM
  TGI: 30.2 µM
HS 578T breast
  GI50: 16.6 µM
  TGI: 41.2 µM
KM12 colon
  GI50: 19.8 µM
  TGI: 41.2 µM
HCC-2998 colon
  GI50: 15.6 µM
  TGI: 30 µM

Reference: PubChem BioAssay (NCI)
